Measured values reported in PubChem BioAssay (NCI).
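All cell lines were grown in 96-well plates and treated with compound for 48 hours. At the GI50, growth is halved. At the TGI there is no net growth.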

Key:
Experiment in all cases: NCI anticancer screen, dose series, 48 h
[1] = tested on: RXF 393 renal
[2] = tested on: LOX IMVI melanoma
[3] = tested on: ACHN renal
[4] = tested on: HS 578T breast
[5] = tested on: SN12C renal
[6] = tested on: UO-31 renal
[7] = tested on: HT29 colon
[8] = tested on: U251 CNS
[9] = tested on: SK-MEL-2 melanoma
[10] = tested on: SNB-75 CNS
[11] = tested on: CCRF-CEM leukemia
[12] = tested on: SF-295 CNS
[13] = tested on: OVCAR-5 ovarian
[14] = tested on: 786-0 renal
[15] = tested on: SW-620 colon
[16] = tested on: EKVX NSCLC
[17] = tested on: NCI-H23 lung
[18] = tested on: CAKI-1 renal
[19] = tested on: MDA-MB-231 breast
[20] = tested on: OVCAR-8 ovarian
[21] = tested on: NCI-H226 lung
[22] = tested on: A549 NSCLC
[23] = tested on: COLO 205 colon
[24] = tested on: SK-MEL-28 melanoma
[25] = tested on: NCI-H460 lung
[26] = tested on: MCF7 breast
[27] = tested on: HCT-116 colon
[28] = tested on: MDA-MB-435
[29] = tested on: SR leukemia
[30] = tested on: A498 renal
[31] = tested on: HCT-15 colon
[32] = tested on: HOP-62 NSCLC
[33] = tested on: UACC-62 melanoma
[34] = tested on: BT-549 breast
[35] = tested on: HL-60(TB) leukemia
[36] = tested on: SNB-19 CNS
[37] = tested on: PC-3 prostate
[38] = tested on: OVCAR-4 ovarian
[39] = tested on: OVCAR-3 ovarian
[40] = tested on: TK-10 renal
[41] = tested on: KM12 colon
[42] = tested on: RPMI-8226 leukemia
[43] = tested on: HOP-92 NSCLC
[44] = tested on: SK-OV-3 ovarian
[45] = tested on: MDA-MB-468 breast
[46] = tested on: DU-145 prostate
[47] = tested on: HCC-2998 colon
[48] = tested on: M14 melanoma
[49] = tested on: SF-539 CNS
[50] = tested on: SF-268 CNS
[51] = tested on: T-47D breast
[52] = tested on: NCI/ADR-RES ovarian
[53] = tested on: NCI-H522 lung
[54] = tested on: MOLT-4 leukemia
[55] = tested on: SK-MEL-5 melanoma
[56] = tested on: MALME-3M melanoma
[57] = tested on: K-562 leukemia
[58] = tested on: IGROV1 ovarian
[59] = tested on: UACC-257 melanoma

COc1ccc2[nH]c(O)c(N=Nc3nc(-c4ccccc4)cs3)c2c1
GI50 [1]: 3.05 µM
TGI [1]: 8.74 µM
GI50 [2]: 3.08 µM
TGI [2]: 10.5 µM
GI50 [3]: 2.89 µM
TGI [3]: 10.2 µM
GI50 [4]: 4.27 µM
TGI [4]: 42.9 µM
GI50 [5]: 2.5 µM
TGI [5]: 17.7 µM
GI50 [6]: 1.38 µM
TGI [6]: 6.4 µM
GI50 [7]: 7.21 µM
TGI [7]: 41.1 µM
GI50 [8]: 2.62 µM
TGI [8]: 6.97 µM
GI50 [9]: 13.3 µM
TGI [9]: 59.4 µM
GI50 [10]: 2.64 µM
TGI [10]: 16.2 µM
GI50 [11]: 6.48 µM
TGI [11]: > 100 µM
GI50 [12]: 3.35 µM
TGI [12]: 12.6 µM
GI50 [13]: 5.44 µM
TGI [13]: 36.7 µM
GI50 [14]: 1.96 µM
TGI [14]: 3.69 µM
GI50 [15]: 3.7 µM
TGI [15]: 16.6 µM
GI50 [16]: 2.62 µM
TGI [16]: 20.2 µM
GI50 [17]: 3.56 µM
TGI [17]: 19.5 µM
GI50 [18]: 3.85 µM
TGI [18]: 16.7 µM
GI50 [19]: 2.66 µM
TGI [19]: 12.7 µM
GI50 [20]: 3.11 µM
TGI [20]: 10.5 µM
GI50 [21]: 2.65 µM
TGI [21]: 13.4 µM
GI50 [22]: 2.76 µM
TGI [22]: 11.3 µM
GI50 [23]: 4.87 µM
TGI [23]: 29.5 µM
GI50 [24]: 4.83 µM
TGI [24]: > 100 µM
GI50 [25]: 3.43 µM
TGI [25]: 14.8 µM
GI50 [26]: 3.66 µM
TGI [26]: 42.5 µM
GI50 [27]: 2.26 µM
TGI [27]: 5.34 µM
GI50 [28]: 4.96 µM
TGI [28]: > 100 µM
GI50 [29]: 4.55 µM
TGI [29]: > 100 µM
GI50 [30]: 2.67 µM
TGI [30]: 5.96 µM
GI50 [31]: 3.26 µM
TGI [31]: 17.3 µM
GI50 [32]: 5.26 µM
TGI [32]: 30.3 µM
GI50 [33]: 2.54 µM
TGI [33]: 38.7 µM
GI50 [34]: 4.43 µM
TGI [34]: 21.8 µM
GI50 [35]: 41.1 µM
TGI [35]: > 100 µM
GI50 [36]: 3.09 µM
TGI [36]: 10.4 µM
GI50 [37]: 4.57 µM
TGI [37]: > 100 µM
GI50 [38]: 1.98 µM
TGI [38]: 5.07 µM
GI50 [39]: 3.06 µM
TGI [39]: 12.5 µM
GI50 [40]: 6.47 µM
TGI [40]: 16.5 µM
GI50 [41]: 5.55 µM
TGI [41]: > 100 µM
GI50 [42]: 14.4 µM
TGI [42]: > 100 µM
GI50 [43]: 1.06 µM
TGI [43]: 4.14 µM
GI50 [44]: 3.52 µM
TGI [44]: 22.2 µM
GI50 [45]: 1.71 µM
TGI [45]: 5.35 µM
GI50 [46]: 4.31 µM
TGI [46]: 17.5 µM
GI50 [47]: 6.93 µM
TGI [47]: > 100 µM
GI50 [48]: 5.8 µM
TGI [48]: 46.7 µM
GI50 [49]: 2.65 µM
TGI [49]: 8.49 µM
GI50 [50]: 3.1 µM
TGI [50]: 11.8 µM
GI50 [51]: 2.78 µM
TGI [51]: 15.8 µM
GI50 [52]: 2.24 µM
TGI [52]: 5.15 µM
GI50 [53]: 2.29 µM
TGI [53]: 9.63 µM
GI50 [54]: 7.27 µM
TGI [54]: > 100 µM
GI50 [55]: 11.5 µM
TGI [55]: 48.3 µM
GI50 [56]: 2.51 µM
TGI [56]: 13.1 µM
GI50 [57]: 4.62 µM
TGI [57]: > 100 µM
GI50 [58]: 5.04 µM
TGI [58]: 31.9 µM
GI50 [59]: 17.4 µM
TGI [59]: > 100 µM
